# Measured values as given in paper PMC6445163, “Design, synthesis, and evaluation of novel 2-phenylpropionic acid derivatives as dual COX inhibitory-antibacterial agents” (Journal of Enzyme Inhibition and Medicinal Chemistry, 2017).
# Columns and labels:
# [1] = test system: Enterococcus faecalis (ATCC 29212); experiment: broth microdilution MIC (CLSI M07-A9), resazurin; format: cell-based; conditions: ATCC29212, 24 h
# Description: (§1) Microbiological studies were performed according to following guides: CLSI reference […]-A9 broth microdilution method[49] for bacterial strains and EUCAST definitive (EDef 7.1) method[50] for Candida species. Synthesized compounds were tested for their in vitro growth inhibitory activity against Staphylococcus aureus (ATCC 25923), Enterococcus faecalis (ATCC 29212), Listeria monocytogenes (ATCC 1911), Klebsiella pneumoniae (NCTC 9633), Escherichia coli (ATCC 35218), E. coli (ATCC 25922) Candida albicans (ATCC 24433) Candida krusei (ATCC 6258) and Candida parapsilosis (ATCC 22019). Chloramphenicol and ketoconazole were used as control drugs. The cultures were obtained from the Mueller-Hinton broth (Difco) for the bacterial strains after overnight incubation at 37 °C. The yeasts were maintained in Roswell Park Memorial Institute (RPMI) after overnight incubation at 37 °C. […] Testing was carried out in Mueller-Hinton broth and RPMI at pH =7, and the two-fold serial dilutions technique was applied. The last well on the microplates containing only inoculated broth was kept as controls and the last well with no growth of microorganism was recorded to represent the minimum inhibitory concentration (MIC) expressed in μg/mL. For both the antibacterial and antifungal assays, the compounds were dissolved in DMSO. […] The completed plates were incubated for 24 h. At the end of the incubation, resazurin (20 μg/mL) was added into each well and plates were incubated for 2 h. MIC values were determined using a microplate reader at […]. Synthesized compounds (6a-6m) were evaluated for antimicrobial activity against various microorganisms such as Staphylococcus aureus (ATCC 25923), Enterococcus faecalis (ATCC 29212), Listeria monocytogenes (ATCC 1911), Klebsiella pneumoniae (NCTC 9633), Escherichia coli (ATCC 35218), E. coli (ATCC 25922)Candida albicans (ATCC 24433) Candida krusei (ATCC 6258) and Candida parapsilosis (ATCC 22019). […] Chloramphenicol and ketoconazole were used as standard drugs in the activity test. […] Besides, the compounds 6d, 6h, 6l and 6m indicated stronger antibacterial activity than the other compounds in the series.
# [2] = test system: Escherichia coli (ATCC 35218); experiment: broth microdilution MIC (CLSI M07-A9), resazurin; format: cell-based; conditions: ATCC35218, 24 h, read-out: MIC Ec-1
# Description: as §1
# [3] = test system: Klebsiella pneumoniae (NCTC 9633); experiment: broth microdilution MIC (CLSI M07-A9), resazurin; format: cell-based; conditions: 24 h
# Description: as §1
# [4] = test system: Staphylococcus aureus (ATCC 25923); experiment: broth microdilution MIC (CLSI M07-A9), resazurin; format: cell-based; conditions: ATCC25923, 24 h
# Description: as §1
# [5] = test system: Escherichia coli (ATCC 25922); experiment: broth microdilution MIC (CLSI M07-A9), resazurin; format: cell-based; conditions: ATCC25922, 24 h, read-out: MIC Ec-2
# Description: as §1
# [6] = test system: Listeria monocytogenes (ATCC 1911); experiment: broth microdilution MIC (CLSI M07-A9), resazurin; format: cell-based; conditions: ATCC1911, 24 h
# Description: as §1
# [7] = test system: Candida parapsilosis (ATCC 22019); experiment: broth dilution MIC (EUCAST EDef 7.1), resazurin; format: cell-based; conditions: ATCC22019, 24 h
# Description: as §1
# [8] = test system: Candida krusei (ATCC 6258); experiment: broth dilution MIC (EUCAST EDef 7.1), resazurin; format: cell-based; conditions: Pichia kudriavzevii, ATCC6258, 24 h
# Description: as §1
# [9] = test system: Candida albicans (ATCC 24433); experiment: broth dilution MIC (EUCAST EDef 7.1), resazurin; format: cell-based; conditions: ATCC24433, 24 h
# Description: as §1
# [10] = target: T1, COX-1 (Ovis aries, UniProt P05979); experiment: fluorometric COX-1 inhibitor screening kit assay; format: biochemical; conditions: for SI (selectivity index): IC50 (COX-1)/IC50 (COX-2); for IC50: fluorometric kit, 25 °C; for Selectivity: isoform preferred according to SI
# T1 construct: purchased Biovision K548-100
# T1 sequence (P05979 25-600): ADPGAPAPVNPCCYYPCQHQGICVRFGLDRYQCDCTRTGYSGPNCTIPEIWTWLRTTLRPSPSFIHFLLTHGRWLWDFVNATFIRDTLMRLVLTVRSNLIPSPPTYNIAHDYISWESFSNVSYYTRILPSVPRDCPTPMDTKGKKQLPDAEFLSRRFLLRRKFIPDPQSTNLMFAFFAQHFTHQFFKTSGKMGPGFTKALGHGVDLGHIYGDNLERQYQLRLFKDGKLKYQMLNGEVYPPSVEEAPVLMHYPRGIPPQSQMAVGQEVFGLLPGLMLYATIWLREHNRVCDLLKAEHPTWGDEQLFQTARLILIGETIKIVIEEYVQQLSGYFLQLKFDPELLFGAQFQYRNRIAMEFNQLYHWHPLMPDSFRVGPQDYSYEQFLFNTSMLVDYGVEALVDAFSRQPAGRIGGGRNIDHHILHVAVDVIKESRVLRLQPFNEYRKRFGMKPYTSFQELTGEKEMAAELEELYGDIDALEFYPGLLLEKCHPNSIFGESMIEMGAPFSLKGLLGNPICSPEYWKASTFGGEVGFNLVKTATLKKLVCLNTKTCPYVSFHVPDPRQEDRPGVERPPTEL
# Description: Inhibitory potency of the compounds against COX-1 and COX-2 enzymes was determined using fluorometric COX-1 and COX-2 inhibitor screening kits (Biovision, Zurich, Switzerland). Experimental protocol was followed as described in the guides of the supplier[47]^,[48]. All of the pipettings in the assay were performed by Biotek Precision robotic system (BioTek Instruments, Inc., Winooski, VT). […] Appropriate two points (T1 and T2) in the linear range of the plot were chosen, and the corresponding fluorescence values (RFU1 and RFU2) were obtained. The slope for all samples, including enzyme control (EC), by dividing the net ΔRFU (RFU2–RFU1) values by the time ΔT (T2–T1) were calculated by using following equation: % Relative inhibition=(Slope of EC-Slope of S/Slope of EC)×100
# This initial in vitro assay was done with two concentrations (10^−3 and 10^−4 M) for all compounds. […] The IC50 value was calculated from the plots of enzyme activity against concentrations by applying regression analyses on GraphPad Prism Version 5 (GraphPad Software, La Jolla, CA).
# Selectivity indexes (SI) were expressed as IC50 (COX-1)/IC50 (COX-2). Selectivity toward COX-2 decreases as the corresponding SI decreases while selectivity toward COX-1 isoform increases as the corresponding SI decreases.
# [11] = target: T1, COX-1; experiment: enzyme kinetics (Lineweaver-Burk), arachidonic acid substrate; format: biochemical; conditions: for mode of inhibition: Lineweaver-Burk plot analysis; for Ki: secondary plot of slope versus inhibitor concentration, read-out: Ki (steady-state inhibition constant)
# Description: The mode of inhibition was determined by following the Lineweaver–Burk double reciprocal plot analysis of the data and calculated as per the Michaelis–Menten kinetics. To understand the possible mode of action, Km and Vmax were also calculated. The slopes of the Lineweaver–Burk plots were plotted versus the inhibitor concentration, and the Ki values were determined from the x-axis intercept as inhibition constant − Ki. […] The kinetic parameters of this study were determined based on Michaelis–Menten equation followed by a Lineweaver–Burk double reciprocal analysis of data set regarding […] versus 1/[S] plot.
SMILES,MIC [1],MIC [2],MIC Kp [3],MIC [4],MIC [5],MIC [6],MIC [7],MIC [8],MIC [9],SI (selectivity index) [10],IC50 [10],Selectivity [10],Vmax value of the competitive inhibition [11],mode of inhibition [11],Ki [11]
"COc1ccc2sc(SCc3ccc(C(C)C(=O)O)cc3)nc2c1 (stereo not drawn) [Compound 6h, 2-(4-(((5-Methoxybenzo[d]thiazol-2-yl)thio)methyl)phenyl)propanoic acid]",12.5 µg/mL,6.25 µg/mL,6.25 µg/mL,12.5 µg/mL,12.5 µg/mL,6.25 µg/mL,50 µg/mL,100 µg/mL,50 µg/mL,0.59,1.76 µM,COX-1,0.830 ± 0.011 nmol/min/mg protein,competitive,2070 nM
"COc1ccc2[nH]c(SCc3ccc(C(C)C(=O)O)cc3)nc2c1 (stereo not drawn) [Compound 6l, 2-(4-(((5-Methoxy-1H-benzo[d]imidazol-2-yl)thio)methyl)phenyl)propanoic acid]",12.5 µg/mL,6.25 µg/mL,6.25 µg/mL,12.5 µg/mL,12.5 µg/mL,6.25 µg/mL,50 µg/mL,50 µg/mL,50 µg/mL,0.60,1.4 µM,COX-1,0.669 ± 0.003 nmol/min/mg protein,competitive,1700 nM
